Where “and” joins values, the source holds several entries; their conditions need not be identical. Equal entries are not always repeated.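 96-well plates; 48 h exposure; 5 concentrations. Endpoints by linear interpolation between flanking doses. Not reached: highest tested concentration assigned. GI50 = concentration required for 50% inhibition of growth. TGI marks complete inhibition of growth.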
Tests used:
Assay in all cases: growth of human tumour cells (NCI), 48 h
TK-10 renal = system: TK-10 renal
786-0 renal = system: 786-0 renal
SNB-75 CNS = system: SNB-75 CNS
PC-3 prostate = system: PC-3 prostate
CCRF-CEM leukemia = system: CCRF-CEM leukemia
NCI/ADR-RES ovarian = system: NCI/ADR-RES ovarian
OVCAR-5 ovarian = system: OVCAR-5 ovarian
MALME-3M melanoma = system: MALME-3M melanoma
MOLT-4 leukemia = system: MOLT-4 leukemia
NCI-H460 lung = system: NCI-H460 lung

Compound	GI50 (TK-10 renal)	TGI (TK-10 renal)	GI50 (786-0 renal)	TGI (786-0 renal)	GI50 (SNB-75 CNS)	TGI (SNB-75 CNS)	GI50 (PC-3 prostate)	TGI (PC-3 prostate)	GI50 (CCRF-CEM leukemia)	TGI (CCRF-CEM leukemia)	GI50 (NCI/ADR-RES ovarian)	TGI (NCI/ADR-RES ovarian)	GI50 (OVCAR-5 ovarian)	TGI (OVCAR-5 ovarian)	GI50 (MALME-3M melanoma)	TGI (MALME-3M melanoma)	GI50 (MOLT-4 leukemia)	TGI (MOLT-4 leukemia)	GI50 (NCI-H460 lung)	TGI (NCI-H460 lung)
COc1c2ccccc2c(O)c2c(=O)ccn(C)c12	11.3 µM	55.8 µM	17.2 µM	66.4 µM	12.9 µM	> 53.9 µM	15 µM	57.6 µM	26.8 µM	> 100 µM	4.62 µM	30 µM	11.7 µM	45 µM	2.37 µM	5.46 µM	17.9 µM	> 83.8 µM	3.51 µM	17 µM
O=C(Nc1ccccc1)Nc1ccc(Cl)c(Cl)c1	3.83 µM	36.2 µM	3.7 µM	> 100 µM	5.35 µM	> 100 µM	2.41 µM	9.72 µM	4.87 µM	> 100 µM	3.05 µM	83.8 µM	8.85 µM	> 100 µM	2.86 µM	21.4 µM	3.58 µM	86.8 µM	3.06 µM	> 100 µM
COc1cc(NC(C)CCCN2C(=O)c3ccccc3C2=O)c2ncccc2c1OC (stereo not given)	40.5 µM	> 100 µM	54.1 µM	> 100 µM	54.4 µM	> 100 µM	24.9 µM	71.1 µM	49.2 µM	> 100 µM	24 µM	> 100 µM	82.6 µM	> 100 µM	22.9 µM	58.3 µM	38.3 µM	> 100 µM	35.5 µM	> 100 µM
FC(F)(F)c1ccc(NCc2nc3ccccc3[nH]2)cc1	38.2 µM	> 100 µM	30.7 µM	> 100 µM	23 µM	> 100 µM	18.8 µM	75.8 µM	32.5 µM	> 100 µM	21.9 µM	67.2 µM	27.8 µM	78.3 µM	23.9 µM	69.5 µM	21.6 µM	63 µM	19.5 µM	47.7 µM
CNc1ncc2cc(-c3cc(NC(=O)NCCC(C)(C)C)c(F)cc3C)c(C)nc2n1	0.241 µM and 0.243 µM	5.07 µM and 6.79 µM	0.811 µM and 0.81 µM	> 100 µM	0.949 µM and 1.04 µM	7.36 µM and 7.6 µM	17.4 µM and 6.93 µM	> 100 µM	10.1 µM and > 9.36 µM	> 100 µM	1.5 µM and 1.35 µM	> 100 µM	0.0761 µM and 0.083 µM	> 100 µM	< 0.01 µM and 0.00462 µM	< 0.011 µM and 0.0522 µM	0.688 µM and > 2.45 µM	> 69.7 µM	0.473 µM and 0.332 µM	> 100 µM
O=c1c2cc(O)c(O)cc2oc2cc(O)c(C3OC(CO)C(O)C(O)C3O)c(O)c12 (stereo not given)		> 100 µM		> 100 µM		> 100 µM		> 100 µM		> 100 µM		> 100 µM		> 100 µM		> 100 µM		> 100 µM		> 100 µM
COc1cccc(/C=C\c2ccnc3ccccc23)c1		> 10 µM		> 10 µM		> 10 µM		> 10 µM		> 10 µM		> 10 µM		> 10 µM		> 10 µM		> 10 µM		> 10 µM
C#Cc1ccc(-n2c(/C=C/c3ccc4ccccc4c3)nc3ncccc3c2=O)cc1	4.04 µM	> 100 µM	4.08 µM	> 100 µM	2.95 µM	> 100 µM	2.35 µM	> 100 µM	1.53 µM	> 100 µM	3.29 µM	> 100 µM	6.88 µM	> 100 µM	4.97 µM	> 100 µM	2 µM	> 100 µM	2.88 µM	> 100 µM
COc1cc(/C=C/c2ccccn2)cc(OC)c1OC		> 10 µM		> 10 µM		> 10 µM		> 10 µM		> 10 µM		> 10 µM		> 10 µM		> 10 µM		> 10 µM		> 10 µM
COc1ccc2c(c1)C(=O)c1c-2c(N2CCN(C(=O)CCNCCNCCO)CC2)nc2ccccc12	22.5 µM	43.1 µM	11.4 µM	25.6 µM	18.6 µM	37.4 µM	13.2 µM	27.9 µM	5.32 µM	23.7 µM	18 µM	36.1 µM	18.3 µM	34.4 µM	26.6 µM	58 µM	5.05 µM	22.9 µM	4.61 µM	19.6 µM
O=C1NC(=N[C@H](CO)c2ccccc2)S/C1=C\c1ccc2ncccc2c1	1.95 µM	20 µM	7.31 µM	> 25 µM	1.46 µM	17.7 µM	4.07 µM	> 25 µM	4.63 µM	16.7 µM	> 19.3 µM	> 25 µM	4.96 µM	20.1 µM	6.21 µM	22.4 µM	4.47 µM	14.8 µM	3.71 µM	24.6 µM
C[C@H](c1ccccc1)N(CCC(=O)O)C(=O)CCN(C(=O)CCN(C(=O)CCN[C@H](C)c1ccccc1)[C@H](C)c1ccccc1)[C@H](C)c1ccccc1	> 100 µM	> 100 µM	> 100 µM	> 100 µM	66.4 µM	> 100 µM	> 100 µM	> 100 µM	> 100 µM	> 100 µM	> 100 µM	> 100 µM	> 100 µM	> 100 µM	> 100 µM	> 100 µM	> 100 µM	> 100 µM	> 100 µM	> 100 µM
Fc1ccc(C2C3CCOc4c(ccc5ccccc45)C3=NN2c2ccccc2)cc1 (stereo not given)	> 65 µM	> 100 µM	> 100 µM	> 100 µM	> 78.7 µM	> 100 µM	> 54.9 µM	> 100 µM	16.6 µM	> 74.4 µM	> 100 µM	> 100 µM	> 100 µM	> 100 µM	> 38.7 µM	> 100 µM	30.7 µM	> 100 µM	37.1 µM	> 100 µM
